Results published in patent publication US20070225278A1, “Methods for treating cognitive and other disorders” (priority 2006, published 2007).

Legend:
male Sprague-Dawley rats = assay: Schedule-induced polydipsia (SIP) in rats; type: in vivo, rat
Description: SIP is a model of obsessive-compulsive disorder. In this model, a food pellet is delivered once per minute for a two-hour period. A water bottle is available in the chamber. […] This excessive manifestation of a normal behavior (drinking) provides face validity to the model. […] Most importantly, clinically effective drugs for the treatment of obsessive-compulsive disorder decrease adjunctive drinking.
Animals: Male Sprague-Dawley rats weighing 275-325 g were individually housed in wire hanging cages. Each cage was equipped with a water spigot attached to an automated watering system which allow free access to water at all times.
Methods Rats were placed in an operant chamber (Med Associates) equipped with a pellet dispenser, a food receptacle, a houselight and a water bottle with 100 ml of water. Houselights were turned on in the chamber and a food pellet (Bioserve, 45 mg) was delivered on a fixed-time 60 sec schedule, such that one pellet was delivered each minute during a 2 hour experimental session. At the end of the session, water intake was measured.
Experiments to control for schedule and baseline water intake were conducted by placing 120 pellets in the food receptacle at the start of a 2-hour experimental session. Houselights were turned on, but no additional food pellets were delivered. At the end of the session, water intake was measured.
Dose calculations were based on active moiety.
Evaluation of Results Data were analyzed using a one-way ANOVA. Post hoc tests comparing vehicle to doses of Compound 1 were conducted using contrasts in a least squares model. An ED50 value (dose decreasing polydipsic intake to 50% of vehicle values) was calculated using nonlinear regression models.

[1] = test system: acetylcholine in medial prefrontal cortex; assay: In vivo microdialysis, acetylcholine in medial prefrontal cortex; settings: 17 mg/kg s.c., rat
Method: Animals: Adult male Sprague-Dawley rats (Charles River, Wilmington, Mass.) weighing 280-350 g at the time of surgery were used for all microdialysis experiments. Adult male Long-Evans rats (Charles River, Wilmington, Mass.) weighing 180-220 g were used for NOR studies. Rats were housed individually for recognition memory studies. All animals had free access to food and water and were group housed in the AAALAC-accredited facility that was maintained on a 12 h light dark cycle (lights on at 0600 h) for at least 1 week prior to surgery or behavioral testing. All in vivo studies were performed in accordance to the ‘Guide for the Care and Use of Laboratory Animals’ as adopted and promulgated by the National Institutes of Health (Pub. 85-23, 1985). […]
Analysis of Acetylcholine Dialysate levels of acetylcholine were determined using LC/MS/MS. […]
Acetylcholine data were quantified using peak area against an internal standard and acquired using Masslynx software (Micromass, Beverly, Mass., USA). The mean of the concentration of baseline samples was calculated and denoted as 0%. All sample values were expressed as a percent change from this pre-injection mean baseline value (% change from baseline). Neurochemical data, excluding pre-injection values, were analyzed by a two-way analysis of variance (ANOVA) with repeated measures (time). […]

c1cc2c3c(c1)[C@H]1CCC[C@H]1N3CCNC2 [Compound 1]
change in excessive water intake (male Sprague-Dawley rats; 3 mg/kg ip, p=0.0003): −43%
change in excessive water intake (male Sprague-Dawley rats; 10 mg/kg ip, p<0.0001): −87%
ED50 (male Sprague-Dawley rats; Rattus norvegicus, ip, read-out: ED50 (dose decreasing polydipsic intake to 50% of vehicle values)): 3.16 mg/kg
rats that did not eat all of their food pellets during the 2-hour session (male Sprague-Dawley rats; highest dose (10 mg/kg ip)): 3 of 10
MED for decrease in adjunctive drinking (male Sprague-Dawley rats; ip, acute, 2 hour session): 3 mg/kg
maximal increase in acetylcholine with respect to baseline [1]: 63%
